Test: Elimination of jejunal piperacillin during parenteral piperacillin/tazobactam therapy, canine model
Assay type: in vivo, beagle dogs
Conditions: i.v. 100 mg piperacillin and 12.5 mg tazobactam per kg; experiment 1; compared with ampicillin or amoxicillin
Procedure: Beagle dogs were treated with a combination of piperacillin and tazobactam without and with simultaneous beta-lactamase therapy. The experiments were performed essentially as those described in Examples 1 and 2, except that a single dose of the piperacillin/tazobactam combination contained 100 mg of piperacillin and 12.5 mg of tazobactam per kg of body weight, and the HPLC analysis method was elaborated to be suitable for analysis of piperacillin (the limit of quantification was 10 micrograms per gram of jejunal chyme).
Piperacillin values in experiment 1 represent jejunal piperacillin concentrations achieved after two separate administrations of piperacillin/tazobactam at a dosing interval of 6 hours without beta-lactamase treatment. Beagle dogs were treated with a piperacillin/tazobactam combination with concurrent beta-lactamase therapy in experiment 2.
The experiment was repeated except that the single dose of beta-lactamase pellets contained about 0.3 mg of active beta-lactamase per kg of body weight, and the single dose of the piperacillin/tazobactam combination contained 65.6 mg of piperacillin and 9.4 mg of tazobactam per kg of body weight.

For CCN1CCN(C(=O)N[C@@H](C(=O)N[C@@H]2C(=O)N3[C@@H]2SC(C)(C)[C@@H]3C(=O)O)c2ccccc2)C(=O)C1=O [piperacillin], the “biliary elimination of piperacillin without beta-lactamase” value was “considerably higher than that of ampicillin or amoxicillin”.

Reference: patent US20090311234A1, “USE OF BETA-LACTAMASE” (priority 2006, published 2009)
